Data from ChEMBL document CHEMBL1133781, “High-pressure synthesis of enantiomerically pure C-6 substituted pyrazol” (Bioorg Med Chem Lett, 2001).

Tests used:
Adenosine receptor A2a = Adenosine receptor A2a (Rattus norvegicus, UniProt P30543); experiment: Displacement of [3H]CGS-21680 (Kd, 14.9 nM) from A2A receptor in rat striatal membranes; assay type: cell membranes, Membrane
Adenosine receptor A1 = molecular target: T1, Adenosine receptor A1 (Rattus norvegicus, UniProt P25099); experiment: Displacement of [3H]N6-PIA (Kd, 1 nM) binding from Adenosine A1 receptor in whole rat brain membranes; assay type: cell membranes
T1 sequence (P25099 whole entry): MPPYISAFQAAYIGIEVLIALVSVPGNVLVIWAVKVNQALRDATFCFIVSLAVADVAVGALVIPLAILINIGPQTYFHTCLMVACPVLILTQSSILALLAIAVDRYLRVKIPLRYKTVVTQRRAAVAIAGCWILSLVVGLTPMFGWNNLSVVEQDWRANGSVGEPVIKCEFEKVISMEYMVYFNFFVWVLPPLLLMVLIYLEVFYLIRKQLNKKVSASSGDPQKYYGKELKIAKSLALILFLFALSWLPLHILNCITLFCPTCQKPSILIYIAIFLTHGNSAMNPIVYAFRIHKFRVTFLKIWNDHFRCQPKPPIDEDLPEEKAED

Sequence of Adenosine receptor A2a (P30543 whole entry): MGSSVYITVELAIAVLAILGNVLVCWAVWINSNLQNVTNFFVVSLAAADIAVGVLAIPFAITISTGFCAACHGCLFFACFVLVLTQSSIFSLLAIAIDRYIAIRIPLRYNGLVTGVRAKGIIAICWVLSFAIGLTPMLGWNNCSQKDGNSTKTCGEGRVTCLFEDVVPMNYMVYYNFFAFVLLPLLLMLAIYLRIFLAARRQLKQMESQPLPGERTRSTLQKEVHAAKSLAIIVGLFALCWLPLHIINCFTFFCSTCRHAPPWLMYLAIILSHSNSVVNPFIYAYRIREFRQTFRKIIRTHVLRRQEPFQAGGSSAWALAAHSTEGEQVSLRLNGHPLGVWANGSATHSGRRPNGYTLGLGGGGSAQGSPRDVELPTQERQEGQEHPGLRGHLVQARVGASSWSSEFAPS

Row | Ki (Adenosine receptor A2a) [nM] | Ki (Adenosine receptor A1) [nM] | Structure (SMILES)
1 | 930 | 84 | CC(Nc1nc(N)c2cnn(-c3ccccc3)c2n1)C(N)=O (racemic)
2 | 648 | 49.1 | C[C@H](Nc1nc(N)c2cnn(-c3ccccc3)c2n1)C(N)=O
3 | 2120 | 486 | C[C@@H](Nc1nc(N)c2cnn(-c3ccccc3)c2n1)C(N)=O
